Assay results: US20090170067A1, “Simian tropic, recombinant human immunodeficiency-1 viruses” (The Rockefeller University, priority 2006, published 2009)

Experiments:
SIVMAC239 [1] = experiment: Sensitivity to RT inhibitors, TZM luciferase infection assay; format: cell-based, simian immunodeficiency virus; conditions: TZM-bl indicator cells, FIG. 5A,B
stHIV/KB9 [2] = experiment: as above; format: cell-based, simian-tropic HIV-1; conditions: TZM-bl indicator cells, FIG. 5A,B
HIV-1NL4-3 [3] = experiment: as above; format: cell-based; conditions: TZM-bl indicator cells, FIG. 5A,B
HIV-1NL4-3 [4] = experiment: Protease inhibitor virus inhibition assay (infected HUT-R5 cells, readout on TZM-bl); format: cell-based; conditions: infected HuT-CCR5 cells, FIG. 5C
stHIV/KB9 [5] = experiment: as above; format: cell-based, simian-tropic HIV-1; conditions: infected HuT-CCR5 cells, FIG. 5C
SIVMAC239 [6] = experiment: as above; format: cell-based, simian immunodeficiency virus; conditions: infected HuT-CCR5 cells, FIG. 5C
[7] = target: rhesus macaque APOBEC3G (rhesus macaque); experiment: cell-based or functional assay
Chain of rhesus macaque APOBEC3G (rhesus macaque) (Q7YR24 whole entry): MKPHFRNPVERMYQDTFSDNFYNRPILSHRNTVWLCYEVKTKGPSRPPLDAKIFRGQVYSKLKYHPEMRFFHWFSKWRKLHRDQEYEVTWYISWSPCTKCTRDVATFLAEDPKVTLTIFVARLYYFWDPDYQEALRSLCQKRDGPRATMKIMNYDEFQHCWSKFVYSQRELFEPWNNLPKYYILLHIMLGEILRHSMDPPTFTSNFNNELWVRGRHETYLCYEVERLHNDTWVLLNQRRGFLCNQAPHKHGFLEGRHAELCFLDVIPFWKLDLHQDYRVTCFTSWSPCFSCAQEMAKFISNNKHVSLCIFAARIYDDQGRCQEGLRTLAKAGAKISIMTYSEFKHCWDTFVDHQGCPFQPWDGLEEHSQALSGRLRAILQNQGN

[8] = target: HIV-1 capsid (CA) protein of the HIV-1NL4-3-based viruses (HIV/KB9/GFP, HIV(SVif)/KB9/GFP) (HIV-1 (NL4-3)) (UniProt P12493); experiment: cell-based or functional assay

## Cc1cn([C@H]2C[C@H](N=[N+]=[N-])[C@@H](CO)O2)c(=O)[nH]c1=O [AZT]
SIVMAC239 [1]
  inhibition of infection (luciferase, percentage of uninhibited level), result in words: equally sensitive
stHIV/KB9 [2]
  inhibition of infection (luciferase, percentage of uninhibited level), result in words: equally sensitive
HIV-1NL4-3 [3]
  inhibition of infection (luciferase, percentage of uninhibited level), result in words: equally sensitive

## CC(C)CN(C[C@@H](O)[C@H](Cc1ccccc1)NC(=O)O[C@H]1CCOC1)S(=O)(=O)c1ccc(N)cc1 [amprenavir]
HIV-1NL4-3 [4]
  inhibition of infectious virus generation, result in words: effective inhibitors
stHIV/KB9 [5]
  inhibition of infectious virus generation, result in words: potently inhibited
SIVMAC239 [6]
  inhibition of infectious virus generation, result in words: ineffective or poorly inhibitory

## Cc1ccnc2c1NC(=O)c1cccnc1N2C1CC1 [nevirapine]
SIVMAC239 [1]
  inhibition of infection (luciferase, percentage of uninhibited level), result in words: ineffective or poorly inhibitory
stHIV/KB9 [2]
  inhibition of infection (luciferase, percentage of uninhibited level), result in words: potently inhibited
HIV-1NL4-3 [3]
  inhibition of infection (luciferase, percentage of uninhibited level), result in words: effective inhibitors

## HIV-1 Vif protein of the HIV-1NL4-3-based viruses (HIV/KB9/GFP, B3HIV(SCA)/KB9/GFP) (from UniProt P12504 1-192)
[7]
  single-cycle infectivity on CEMx174 cells of virus made in 293T cells with or without rhAPOBEC3G: 30 fold

## SIVMAC Vif protein (SIVMAC239) as expressed by HIV(SVif)/KB9/GFP and B3HIV(SCA,SVif)/KB9/GFP
[7]
  fold decrease in single-cycle infectivity on CEMx174 cells of virus made in 293T cells with or without rhAPOBEC3G: < 2 fold

## rhesus macaque TRIM5α (from UniProt Q0PF16 1-497)
[8]
  single-cycle infectivity (GFP-positive cells) in CEMx174 cells expressing rhTRIM5α against unmodified CEMx174 cells: 30 fold
  single-cycle infectivity (GFP-positive cells) in rhesus macaque 221 cells against unmodified CEMx174 cells: 70 fold
